Assay results from PubChem BioAssay AID2060488 (Molecular Pharmacology Branch, DTP, NCI, 2025).

Tested on: 966289-007-R4-J1-PDC complex spheroid viability
Assay: Anticancer human tumor 966289-007-R4-J1-PDC patient-derived pancreatic adenocarcinoma cell line growth inhibition [GQUAD]
Settings: for IC50: curve of first compound; for viability, T/C: stronger effect = lower value
Outline: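 Viability of tumor cells grown as complex spheroids with endothelial and stromal cells, exposed to drug combinations. Top concentration at or near clinical Cmax (else 10 microM), diluted in half-log increments.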

[1] = second compound 0.0316 µM, first compound 0.0316 µM
[2] = second compound 0.0316 µM, first compound 0.1 µM
[3] = second compound 0.0316 µM, first compound 0.316 µM
[4] = second compound 0.0316 µM, first compound 1 µM
[5] = second compound 0.0316 µM, first compound 3.16 µM
[6] = second compound 0.0316 µM, first compound 10 µM
[7] = second compound 0.1 µM, first compound 0.0316 µM
[8] = second compound 0.1 µM, first compound 0.1 µM
[9] = second compound 0.1 µM, first compound 0.316 µM
[10] = second compound 0.1 µM, first compound 1 µM
[11] = second compound 0.1 µM, first compound 3.16 µM
[12] = second compound 0.1 µM, first compound 10 µM
[13] = second compound 0.316 µM, first compound 0.0316 µM
[14] = second compound 0.316 µM, first compound 0.1 µM
[15] = second compound 0.316 µM, first compound 0.316 µM
[16] = second compound 0.316 µM, first compound 1 µM
[17] = second compound 0.316 µM, first compound 3.16 µM
[18] = second compound 0.316 µM, first compound 10 µM
[19] = second compound 1 µM, first compound 0.0316 µM
[20] = second compound 1 µM, first compound 0.1 µM
[21] = second compound 1 µM, first compound 0.316 µM
[22] = second compound 1 µM, first compound 1 µM
[23] = second compound 1 µM, first compound 3.16 µM
[24] = second compound 1 µM, first compound 10 µM
[25] = second compound 3.16 µM, first compound 0.0316 µM
[26] = second compound 3.16 µM, first compound 0.1 µM
[27] = second compound 3.16 µM, first compound 0.316 µM
[28] = second compound 3.16 µM, first compound 1 µM
[29] = second compound 3.16 µM, first compound 3.16 µM
[30] = second compound 3.16 µM, first compound 10 µM
[31] = second compound 10 µM, first compound 0.0316 µM
[32] = second compound 10 µM, first compound 0.1 µM
[33] = second compound 10 µM, first compound 0.316 µM
[34] = second compound 10 µM, first compound 1 µM
[35] = second compound 10 µM, first compound 3.16 µM
[36] = second compound 10 µM, first compound 10 µM
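Further: spheroids exposed to the agents for seven days before readout.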
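Wherever viability, T/C is given: percent viability relative to DMSO vehicle control wells taken as 100%.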

CC(C)n1c(=O)n(C)c2cnc3cc(F)c(-c4ccc(OCCCN5CCCCC5)nc4)cc3c21 + Cc1cnc(CNC(=O)c2c(=O)c3ccc(N4CCCN(C)CC4)nc3n3c2sc2ccccc23)cn1
IC50 (second compound 0.0316 µM): < 31.6 nM | IC50 (second compound 0.1 µM): < 31.6 nM | IC50 (second compound 0.316 µM): < 31.6 nM | IC50 (second compound 1 µM): < 31.6 nM | IC50 (second compound 3.16 µM): < 31.6 nM | IC50 (second compound 10 µM): < 31.6 nM | viability, T/C [1]: 36.8% | viability, T/C [2]: 18.8% | viability, T/C [3]: 21.1% | viability, T/C [4]: 15.4% | viability, T/C [5]: 33.4% | viability, T/C [6]: 31.6% | viability, T/C [7]: 10.5% | viability, T/C [8]: 7.68% | viability, T/C [9]: 8.96% | viability, T/C [10]: 9.72% | viability, T/C [11]: 12.6% | viability, T/C [12]: 17.9% | viability, T/C [13]: 6.19% | viability, T/C [14]: 6.34% | viability, T/C [15]: 5.97% | viability, T/C [16]: 6.08% | viability, T/C [17]: 7.07% | viability, T/C [18]: 8.93% | viability, T/C [19]: 3.82% | viability, T/C [20]: 4.77% | viability, T/C [21]: 3.79% | viability, T/C [22]: 4.54% | viability, T/C [23]: 5.48% | viability, T/C [24]: 5.76% | viability, T/C [25]: 1.67% | viability, T/C [26]: 2.31% | viability, T/C [27]: 1.96% | viability, T/C [28]: 2.66% | viability, T/C [29]: 3.94% | viability, T/C [30]: 3% | viability, T/C [31]: 0.09% | viability, T/C [32]: 0.12% | viability, T/C [33]: 0.27% | viability, T/C [34]: 0.16% | viability, T/C [35]: 0.16% | viability, T/C [36]: 0.15%

CC1COCCN1c1cc(-c2ccnn2C)c2ccnc(-c3ccn[nH]3)c2n1 (stereo unspecified) + Cc1cnc(CNC(=O)c2c(=O)c3ccc(N4CCCN(C)CC4)nc3n3c2sc2ccccc23)cn1
IC50 (second compound 0.0316 µM): < 31.6 nM | IC50 (second compound 0.1 µM): < 31.6 nM | IC50 (second compound 0.316 µM): < 31.6 nM | IC50 (second compound 1 µM): < 31.6 nM | IC50 (second compound 3.16 µM): < 31.6 nM | IC50 (second compound 10 µM): < 31.6 nM | viability, T/C [1]: 24.3% | viability, T/C [2]: 6.05% | viability, T/C [3]: 4.12% | viability, T/C [4]: 4.23% | viability, T/C [5]: 3.36% | viability, T/C [6]: 2.9% | viability, T/C [7]: 6.63% | viability, T/C [8]: 3.84% | viability, T/C [9]: 4.03% | viability, T/C [10]: 4.94% | viability, T/C [11]: 3.73% | viability, T/C [12]: 3.29% | viability, T/C [13]: 7.42% | viability, T/C [14]: 5.9% | viability, T/C [15]: 5.46% | viability, T/C [16]: 5.36% | viability, T/C [17]: 3.91% | viability, T/C [18]: 3.35% | viability, T/C [19]: 5.44% | viability, T/C [20]: 5.41% | viability, T/C [21]: 6.4% | viability, T/C [22]: 6.38% | viability, T/C [23]: 5.26% | viability, T/C [24]: 3.91% | viability, T/C [25]: 3.88% | viability, T/C [26]: 3.62% | viability, T/C [27]: 4.85% | viability, T/C [28]: 5.21% | viability, T/C [29]: 6.21% | viability, T/C [30]: 4.16% | viability, T/C [31]: 0.03% | viability, T/C [32]: 0.07% | viability, T/C [33]: 0.1% | viability, T/C [34]: 0.08% | viability, T/C [35]: 0.11% | viability, T/C [36]: 0.15%

CC1COCCN1c1cc(C2(O)CC3CCC(C2)O3)c2cnn(-c3ccn[nH]3)c2n1 (stereo unspecified) + Cc1cnc(CNC(=O)c2c(=O)c3ccc(N4CCCN(C)CC4)nc3n3c2sc2ccccc23)cn1
IC50 (second compound 0.0316 µM): < 31.6 nM | IC50 (second compound 0.1 µM): < 31.6 nM | IC50 (second compound 0.316 µM): < 31.6 nM | IC50 (second compound 1 µM): < 31.6 nM | IC50 (second compound 3.16 µM): < 31.6 nM | IC50 (second compound 10 µM): < 31.6 nM | viability, T/C [1]: 17.9% | viability, T/C [2]: 6.32% | viability, T/C [3]: 6.87% | viability, T/C [4]: 4.01% | viability, T/C [5]: 4.28% | viability, T/C [6]: 3.82% | viability, T/C [7]: 8.59% | viability, T/C [8]: 4.79% | viability, T/C [9]: 5.61% | viability, T/C [10]: 4.59% | viability, T/C [11]: 3.77% | viability, T/C [12]: 3.82% | viability, T/C [13]: 6.96% | viability, T/C [14]: 6.64% | viability, T/C [15]: 7.05% | viability, T/C [16]: 5.35% | viability, T/C [17]: 4.24% | viability, T/C [18]: 3.79% | viability, T/C [19]: 5.69% | viability, T/C [20]: 6.03% | viability, T/C [21]: 7.24% | viability, T/C [22]: 5.15% | viability, T/C [23]: 5.42% | viability, T/C [24]: 4.18% | viability, T/C [25]: 4.9% | viability, T/C [26]: 5.03% | viability, T/C [27]: 5.23% | viability, T/C [28]: 5.64% | viability, T/C [29]: 5.02% | viability, T/C [30]: 3.38% | viability, T/C [31]: 0.04% | viability, T/C [32]: 0.08% | viability, T/C [33]: 0.11% | viability, T/C [34]: 0.07% | viability, T/C [35]: 0.15% | viability, T/C [36]: 0.14%
